SMILES strings stand for the structures.

In this assay the test system is DBT tumors. The assay is described as follows: Lymphocyte and brain macrophage invasion of DBT tumors implanted in mouse brain. In kind it is in vivo, mice (BALB/c). The following applies: daily i.p. (40 mg/Kg per FIG. 7), tumors implanted three weeks in mouse brain. Here is the method: Effect of JWH-451 on the immune cell invasion of syngenic mouse model of astrocytomas tumors (mouse astrocytoma cell implanted into the brain of wild type mice hosts with intact immune systems) was measured. Briefly, mice (BALB/c, 8 week-old, male, Charles River) were used for this study and housed under specific-pathogen-free conditions for at least one week prior to surgery. Twenty-four hours before surgery, 5×10^6 DBT cells were harvested in 10 ml of DMEM supplemented with 10% heat-inactivated FBS, 10 U/ml penicillin and 10 μg/ml streptomycin and seeded in T75 cm^2 cell culture flasks (one flask per mouse). Just before surgery, cells from one flask were detached with trypsin-EDTA, recovered in DMEM supplemented with 10% heat-inactivated FBS, centrifuged/rinsed twice with MEM (serum free) and resuspended at 10^6 cells/u1 of ice-cold MEM (ready for injection). Mice were anesthetized with ketamine/xylazine (given […] i.p., 130 mg/kg ketamine/8.8 mg/kg xylazine) and placed in a stereotactic instrument (David Kopf Instruments, CA) on an isothermal pad (Deltaphase®, Braintree Scientific, Inc, Braintree, Mass.). After midline incision of the scalp, a 25-G needle was used to perform a craniostomy at 2 mm cranial from bregma and 1.5 mm left lateral. […]

As for `CCn1c(C)c(C(=O)c2ccc(C)c3ccccc23)c2ccccc21` [JWH-451, 1-Ethyl-2-methyl-3-(4-methyl-1-napthoyl)indole], the “brain macrophage density / number invading DBT tumors” value is listed as “two fold increase” and the “lymphocyte density / number invading DBT tumors” value is listed as “two fold increase”.

Values taken from patent US9034895B2, “Composition and methods for treating glioblastoma” (University of Washington Through its Center for …, priority 2010, dated 2015).
